{"source": "paper PMC4660213", "about": "“Identification and characterization of multiple rubisco activases in chemoautotrophic bacteria” (Nature Communications, 2015)", "type_in_all_cases": "biochemical", "key": {"AfLS": {"target": "T1, AfLS (Acidithiobacillus ferrooxidans, UniProt B7JA24)", "T1 construct": "gene cbbL2; cbbLS in pET30b, E. coli BL21, ion exchange and gel filtration, L8S8 hexadecamer, predicted 530 kDa; with Ribulose bisphosphate carboxylase small subunit", "T1 sequence (B7JA24 whole entry)": "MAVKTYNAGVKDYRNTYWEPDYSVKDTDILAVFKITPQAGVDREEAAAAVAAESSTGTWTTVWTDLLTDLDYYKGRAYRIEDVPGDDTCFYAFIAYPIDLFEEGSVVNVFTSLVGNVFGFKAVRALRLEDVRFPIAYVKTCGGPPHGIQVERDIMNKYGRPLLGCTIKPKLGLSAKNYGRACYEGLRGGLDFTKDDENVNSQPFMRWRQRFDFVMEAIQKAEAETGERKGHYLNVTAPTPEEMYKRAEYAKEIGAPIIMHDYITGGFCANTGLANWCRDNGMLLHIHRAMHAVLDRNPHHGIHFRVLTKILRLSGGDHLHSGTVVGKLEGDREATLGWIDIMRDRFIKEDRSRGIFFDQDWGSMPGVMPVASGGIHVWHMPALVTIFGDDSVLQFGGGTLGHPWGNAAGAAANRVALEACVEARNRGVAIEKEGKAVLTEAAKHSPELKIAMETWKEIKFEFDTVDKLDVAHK", "T1 sequence (B7JA25 1-118 partner)": "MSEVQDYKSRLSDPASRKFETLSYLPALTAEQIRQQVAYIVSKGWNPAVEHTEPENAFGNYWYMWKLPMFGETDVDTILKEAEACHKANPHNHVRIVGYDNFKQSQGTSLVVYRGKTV", "assay": "spectrophotometric coupled rubisco assay of ECMC complex", "conditions": "activated enzyme (ECM) preincubated with fourfold excess of carboxypentitol bisphosphate (1:1 CABP and carboxyribitol isomer); pH 8.0, 25 °C, 20 mM NaHCO3, Mg2+; active site"}, "AfM [1]": {"target": "T2, AfM (Acidithiobacillus ferrooxidans, UniProt B7J5E3)", "T2 construct": "gene cbbL2; His6-ubiquitin fusion cleaved to native N terminus, E. coli BL21 (DE3), hexamer (L6), 313 kDa measured", "T2 sequence (B7J5E3 entry or part of it)": "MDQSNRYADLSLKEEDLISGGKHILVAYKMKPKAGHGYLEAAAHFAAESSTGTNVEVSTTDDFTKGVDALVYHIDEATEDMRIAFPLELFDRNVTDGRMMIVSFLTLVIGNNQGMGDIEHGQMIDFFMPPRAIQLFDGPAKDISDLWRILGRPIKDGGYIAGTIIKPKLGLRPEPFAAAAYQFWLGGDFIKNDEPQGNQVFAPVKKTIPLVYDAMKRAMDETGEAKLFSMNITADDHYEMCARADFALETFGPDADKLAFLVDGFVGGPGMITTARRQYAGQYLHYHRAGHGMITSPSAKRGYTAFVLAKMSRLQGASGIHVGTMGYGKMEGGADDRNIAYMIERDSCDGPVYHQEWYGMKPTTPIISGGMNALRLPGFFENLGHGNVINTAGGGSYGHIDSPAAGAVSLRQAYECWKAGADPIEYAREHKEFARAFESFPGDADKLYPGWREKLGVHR", "assay": "spectrophotometric coupled rubisco assay of ECMC complex", "conditions": "activated enzyme (ECM) preincubated with fourfold excess of carboxypentitol bisphosphate (1:1 CABP and carboxyribitol isomer); pH 8.0, 25 °C, 20 mM NaHCO3, Mg2+; active site but 5 mM NaHCO3"}, "Q2O2 [2]": {"target": "T3, Q2O2 (Acidithiobacillus ferrooxidans, UniProt B7J5E4, W83L)", "T3 construct": "gene cbbQ-2; co-expressed His6-ubiquitin fusions cleaved, E. coli, CbbQ6CbbO1 hetero-oligomer, 285 kDa measured", "T3 sequence (B7J5E4 entry or part of it W83L)": "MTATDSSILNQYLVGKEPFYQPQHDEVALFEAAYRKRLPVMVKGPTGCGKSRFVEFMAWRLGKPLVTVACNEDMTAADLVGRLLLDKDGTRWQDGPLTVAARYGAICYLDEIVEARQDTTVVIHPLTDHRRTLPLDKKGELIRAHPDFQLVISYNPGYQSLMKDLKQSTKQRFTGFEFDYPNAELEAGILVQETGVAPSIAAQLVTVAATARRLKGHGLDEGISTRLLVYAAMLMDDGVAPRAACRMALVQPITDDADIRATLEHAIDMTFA", "T3 sequence (B7J5E5 entry or part of it, stated change not applied, further chain)": "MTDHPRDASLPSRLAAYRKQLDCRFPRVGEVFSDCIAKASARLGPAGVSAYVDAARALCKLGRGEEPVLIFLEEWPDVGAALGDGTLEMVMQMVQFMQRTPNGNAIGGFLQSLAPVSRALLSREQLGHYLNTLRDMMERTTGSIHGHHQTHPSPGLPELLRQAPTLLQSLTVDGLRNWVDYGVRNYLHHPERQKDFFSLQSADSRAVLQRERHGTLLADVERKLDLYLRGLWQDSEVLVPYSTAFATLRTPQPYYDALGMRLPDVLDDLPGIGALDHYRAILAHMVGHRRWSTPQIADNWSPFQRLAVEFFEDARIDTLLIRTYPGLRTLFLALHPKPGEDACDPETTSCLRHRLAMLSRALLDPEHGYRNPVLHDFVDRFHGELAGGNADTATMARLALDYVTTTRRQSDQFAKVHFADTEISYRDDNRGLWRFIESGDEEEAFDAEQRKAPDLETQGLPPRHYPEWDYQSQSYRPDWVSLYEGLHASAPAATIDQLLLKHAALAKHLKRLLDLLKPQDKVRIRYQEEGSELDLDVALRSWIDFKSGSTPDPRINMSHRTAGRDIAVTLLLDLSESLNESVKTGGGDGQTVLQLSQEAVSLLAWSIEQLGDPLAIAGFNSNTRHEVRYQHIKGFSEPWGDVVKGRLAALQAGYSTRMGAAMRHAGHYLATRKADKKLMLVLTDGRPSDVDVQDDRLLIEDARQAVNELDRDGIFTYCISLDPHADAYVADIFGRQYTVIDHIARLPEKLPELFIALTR", "assay": "coupled ATPase assay (NADH oxidation)", "conditions": "25 °C; basal, no rubisco"}, "AfQ2": {"target": "T4, AfQ2 (Acidithiobacillus ferrooxidans, UniProt B7J5E4)", "T4 construct": "gene cbbQ-2; His6-ubiquitin fusion cleaved to native N terminus, E. coli, homohexamer, 173 kDa measured", "T4 sequence (B7J5E4 entry or part of it)": "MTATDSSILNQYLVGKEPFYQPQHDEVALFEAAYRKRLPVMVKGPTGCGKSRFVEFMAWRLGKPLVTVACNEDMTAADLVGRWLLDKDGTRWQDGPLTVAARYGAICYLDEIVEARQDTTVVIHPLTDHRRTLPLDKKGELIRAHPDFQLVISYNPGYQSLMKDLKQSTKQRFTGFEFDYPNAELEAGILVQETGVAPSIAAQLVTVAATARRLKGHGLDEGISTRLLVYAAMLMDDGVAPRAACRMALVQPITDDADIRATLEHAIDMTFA", "assay": "coupled ATPase assay (NADH oxidation)", "conditions": "25 °C; basal, no rubisco"}, "Q2O2 [3]": {"target": "T5, Q2O2 (Acidithiobacillus ferrooxidans, UniProt B7J5E4, W83F)", "T5 construct": "gene cbbQ-2; co-expressed His6-ubiquitin fusions cleaved, E. coli, CbbQ6CbbO1 hetero-oligomer, 285 kDa measured", "T5 sequence (B7J5E4 entry or part of it W83F)": "as the sequence (B7J5E4 entry or part of it W83L) above, with L83F counted along it", "T5 sequence (B7J5E5 entry or part of it, stated change not applied, further chain)": "as the sequence (B7J5E5 entry or part of it, stated change not applied, further chain) above", "assay": "coupled ATPase assay (NADH oxidation)", "conditions": "25 °C; basal, no rubisco"}, "AfM [4]": {"target": "T2, AfM", "assay": "spectrophotometric coupled rubisco assay", "conditions": "pH 8.0, 25 °C, 1 mM RuBP, 5 mM NaHCO3, 5 mM MgCl2; substrate of ECM, also inhibits the apoenzyme (loose ER complex)"}}, "data": [{"molecule": "O=C(O)[C@@](O)(COP(=O)(O)O)[C@H](O)[C@H](O)COP(=O)(O)O", "note": "(mixture of isomers) [CABP, carboxyarabinitol-1,5-bisphosphate]", "values": [{"measurement": "spectrophotometric coupled rubisco assay of ECMC complex", "setting": "AfLS", "value": "the form I (AfLS) ER and ECMC complexes were inactive"}, {"measurement": "spectrophotometric coupled rubisco assay of ECMC complex", "setting": "AfM [1]", "value": "AfM bound to the transition state analogue CABP (ECMC) formed stable and inactive complexes"}]}, {"molecule": "Nc1ncnc2c1ncn2[C@@H]1O[C@H](COP(=O)(O)OP(=O)(O)OP(=O)(O)O)[C@@H](O)[C@H]1O", "note": "[ATP]", "values": [{"measurement": "coupled ATPase assay (NADH oxidation)", "setting": "Q2O2 [2]", "value": "The W83L and W83F mutants displayed three and twofold increased basal ATPase activities"}, {"measurement": "coupled ATPase assay (NADH oxidation)", "setting": "AfQ2", "value": "Both AfQ2 and Q2O2ΔC444 displayed a low ATPase activity"}, {"measurement": "coupled ATPase assay (NADH oxidation)", "setting": "Q2O2 [3]", "value": "The W83L and W83F mutants displayed three and twofold increased basal ATPase activities"}]}, {"molecule": "O=C(COP(=O)(O)O)[C@H](O)[C@H](O)COP(=O)(O)O", "note": "[RuBP, ribulose-1,5-bisphosphate]", "values": [{"measurement": "spectrophotometric coupled rubisco assay", "setting": "AfM [4]", "value": "the activities of both AfM ECM and ER rapidly converged to a low rate"}]}]}
